{"source": "patent US12220410B2", "about": "“Antitumor composition” (priority 2019, dated 2025)", "key": {"[1]": {"tested_on": "human diffuse large B-cell lymphoma (DLBCL) cell line OCI-Ly7", "assay": "In vitro cell growth inhibition test, OCI-Ly7 (cell viability, combination index)", "assay_type": "cell-based", "conditions": "bendamustine 0 nM"}, "[2]": {"tested_on": "human acute myelogenous leukemia (AML) cell line KG-1", "assay_type": "in vivo"}, "[3]": {"tested_on": "human diffuse large B-cell lymphoma cell line OCI-Ly7", "assay_type": "in vivo", "conditions": "for Tumor growth delay / Tumor growth delay rate: relative tumor volume 1600%"}, "[4]": {"tested_on": "human breast cancer cell line MDA-MB-453", "assay": "In vivo antitumor effect test, MDA-MB-453 tumor, compound A and lapatinib (Example 37)", "design": "species or system NOD-SCID mice", "conditions": "for Tumor growth delay / Tumor growth delay rate: relative tumor volume 200%", "method": "The tumor volume was calculated from tumor diameters by the following formula: (Long diameter×[Short diameter]^2×0.5). Using the calculated tumor volume value, the relative tumor volume (ratio of the tumor volume on the day of measurement to the baseline tumor volume on Day 1) was calculated. […] Further, the tumor growth delay rate (% TGD) was calculated according to the following formula: % TGD={(T−C)/C}×100, Where: • T: […] relative tumor volume of the control group to reach 1600% 6) Statistical Analysis\nCompound A was suspended in a 1% hypromellose solution to prepare 20 mg/mL test substance suspensions (a suspension for preparing a single administration solution and a suspension for preparing a 100 mg/kg combined administration solution). The 20 mg/mL test substance suspensions were diluted with a 1% hypromellose solution to prepare 10 mg/mL (100 mg/kg administration solution), 6 mg/mL (suspension for preparing a 30 mg/kg combined administration solution), and 3 mg/mL (30 mg/kg administration solution) test substance suspensions. Lapatinib was suspended in a 1% hypromellose solution to prepare a 20 mg/mL suspension for preparing a 100 mg/kg lapatinib combined administration solution. The 20 mg/mL suspension was diluted with a 1% hypromellose solution to prepare a 10 mg/mL suspension for 100 mg/kg single administration. The administration solution of the combination group was prepared by mixing the 6 mg/mL compound A suspension and the 20 mg/mL lapatinib suspension at 1:1, or mixing the 20 mg/mL compound A suspension and the 20 mg/mL lapatinib suspension at 1:1.\nMDA-MB-453 was obtained from ATCC. […] The collected cells were suspended in serum-free RPMI 1640 medium at 1.0×10^8 cells/mL.\n5-week-old female NOD-SCID mice (NOD.CB17-Prkdcscid/J, produced by Charles River Japan Co., Ltd.) were used. The female NOD-SCID mice were bred in the same manner as in Example 36. The cell suspension was inoculated at 2×10^7 cells/body into the subcutaneous space of the right axillary region of the 6-week-old NOD-SCID mice, and the mice were grouped in the same manner as in Example 36 using the tumor volume as an index.\nThe administration was started on the next day of the grouping (Day 2), and compound A and lapatinib were orally administered once a day for 28 consecutive days. Each group (N=8) was treated as follows. • (1) Control (solvent control) group: 1% hypromellose solution • (2) Compound A (30 mg/kg) treated group: 30 mg/kg of compound A (oral administration once a day for 28 consecutive days) • (3) Compound A (100 mg/kg) treated group: 100 mg/kg of compound A (oral administration once a day for 28 consecutive days) • (4) Lapatinib (100 mg/kg) treated group: 100 mg/kg of lapatinib (oral administration once a day for 28 consecutive days) • (5) Combination group 1: 30 mg/kg of compound A (oral administration once a day for 28 consecutive days)+100 mg/kg of lapatinib (oral administration once a day for 28 consecutive days) • (6) Combination group 2: 100 mg/kg of compound A (oral administration once a day for 28 consecutive days)+100 mg/kg of lapatinib (oral administration once a day for 28 consecutive days)"}, "[5]": {"tested_on": "human diffuse large B-cell lymphoma cell line OCI-Ly7", "design": "species or system SCID mice", "conditions": "mouse, in vivo"}, "[6]": {"tested_on": "human diffuse large B-cell lymphoma cell line OCI-Ly7", "assay_type": "in vivo"}, "[7]": {"tested_on": "human acute myelogenous leukemia (AML) cell line KG-1", "assay_type": "in vivo", "remark": "listed apart in the source"}, "[8]": {"tested_on": "human follicular lymphoma cell line DOHH-2", "assay": "In vitro cell growth inhibition test (CellTiter-Fluor), DOHH-2", "assay_type": "cell-based", "conditions": "DOHH-2"}, "[9]": {"tested_on": "human acute myelogenous leukemia (AML) cell line KG-1", "assay_type": "in vivo", "remark": "listed apart in the source"}, "[10]": {"tested_on": "human diffuse large B-cell lymphoma cell line OCI-Ly7", "assay_type": "in vivo", "remark": "listed apart in the source"}, "[11]": {"conditions": "compound A 10 mg/kg orally once a day for 14 days"}, "[12]": {"conditions": "compound A 30 mg/kg orally once a day for 14 days"}, "[13]": {"conditions": "compound A 100 mg/kg orally once a day for 14 days"}, "[14]": {"conditions": "compound A 30 mg/kg orally once a day for 28 days"}, "[15]": {"conditions": "compound A 100 mg/kg orally once a day for 28 days"}, "[16]": {"conditions": "compound A 30 mg/kg orally once a day for 21 days, relative tumor volume 600%"}}, "note": "Read-outs that look alike come from different tables or passages of the source.", "data": [{"compound": "CNc1ccc(Oc2ccc(NC(=O)c3ccc(C(F)(F)F)cc3)cn2)c(C)c1.Cl", "note": "[Compound A, N-{6-[2-methyl-4-(methylamino)phenoxy]pyridin-3-yl}-4-(trifluoromethyl)benzamide hydrochloride]", "values": [{"measurement": "Cell viability (ratio relative to the drug-free control)", "setting": "[1]; compound A 0.25 nM, OCI-Ly7, 8000 cells/well", "value": 0.79}, {"measurement": "Cell viability (ratio relative to the drug-free control)", "setting": "[1]; compound A 0.5 nM, OCI-Ly7", "value": 0.76}, {"measurement": "Cell viability (ratio relative to the drug-free control)", "setting": "[1]; compound A 1 nM, OCI-Ly7", "value": 0.61}, {"measurement": "Cell viability (ratio relative to the drug-free control)", "setting": "[1]; compound A 2 nM, OCI-Ly7", "value": 0.50}, {"measurement": "antitumor effect on KG-1 tumor", "setting": "[2]; compound A 50 mg/kg, venetoclax 50 mg/kg + decitabine 1 mg/kg", "value": "antitumor effect"}, {"measurement": "T/C (ratio of relative tumor volume of treated group to control group)", "setting": "[2]; compound A single administration 50 mg/kg orally, daily, 14 days, Day 16", "value": 29.2, "unit": "%"}, {"measurement": "effectiveness of monotherapy (tumor growth delay)", "setting": "[3]; 30 or 100 mg/kg of compound A, 50 mg/kg of cyclophosphamide", "value": "effective"}, {"measurement": "Median Time (time for relative tumor volume to reach 1600%)", "setting": "[3]; [11]", "value": 13.2, "unit": "days"}, {"measurement": "Tumor growth delay", "setting": "[3]; [11]", "value": 0.5, "unit": "days"}, {"measurement": "Tumor growth delay rate", "setting": "[3]; [11]", "value": 3.5, "unit": "%"}, {"measurement": "Median Time (time for relative tumor volume to reach 1600%)", "setting": "[3]; [12]", "value": 23.0, "unit": "days"}, {"measurement": "Tumor growth delay", "setting": "[3]; [12]", "value": 10.3, "unit": "days"}, {"measurement": "Median Time (time for relative tumor volume to reach 1600%)", "setting": "[3]; [13]", "value": 31.5, "unit": "days"}, {"measurement": "Tumor growth delay", "setting": "[3]; [13]", "value": 18.8, "unit": "days"}, {"measurement": "Tumor growth delay rate", "setting": "[3]; [13]", "value": 147.6, "unit": "%"}, {"measurement": "effectiveness of monotherapy (tumor growth delay)", "setting": "[4]; 30 or 100 mg/kg of compound A, 100 mg/kg of lapatinib", "value": "effective"}, {"measurement": "Median Time (time for relative tumor volume to reach 200%)", "setting": "[4]; [14]", "value": 39.3, "unit": "days"}, {"measurement": "Tumor growth delay", "setting": "[4]; [14]", "value": 16.5, "unit": "days"}, {"measurement": "Tumor growth delay rate", "setting": "[4]; [14]", "value": 72.4, "unit": "%"}, {"measurement": "Median Time (time for relative tumor volume to reach 200%)", "setting": "[4]; [15]", "value": ">99.0", "unit": "days"}, {"measurement": "Tumor growth delay", "setting": "[4]; [15]", "value": ">76.2", "unit": "days"}, {"measurement": "Tumor growth delay rate", "setting": "[4]; compound A 100 mg/kg orally once a day for 28 days, hydrochloride, 100 mg/kg", "value": ">334.2", "unit": "%"}, {"measurement": "Tumor growth delay rate", "setting": "[4]; compound A 100 mg/kg orally once a day for 28 days, listed as compound A, hydrochloride, 100 mg/kg", "value": "> 334.2", "unit": "%"}, {"measurement": "effectiveness (tumor growth delay)", "setting": "[5]", "value": "effective"}, {"measurement": "Median Time (time for relative tumor volume to reach 800%)", "setting": "[5]; po, 30 mg/kg", "value": 18.2, "unit": "days"}, {"measurement": "Tumor growth delay", "setting": "[5]; po, 30 mg/kg", "value": 8.3, "unit": "days"}, {"measurement": "Tumor growth delay rate", "setting": "[5]; po, 30 mg/kg", "value": 83.8, "unit": "%"}, {"measurement": "effectiveness of monotherapy (tumor growth delay)", "setting": "[6]; 30 mg/kg of compound A, 10 mg/kg of rituximab", "value": "effective"}, {"measurement": "Median Time (time for relative tumor volume to reach 600%)", "setting": "[6]; compound A 30 mg/kg orally once a day for 21 days", "value": 28.4, "unit": "days"}, {"measurement": "Tumor growth delay", "setting": "[6]; [16]", "value": 12.1, "unit": "days"}, {"measurement": "Tumor growth delay rate", "setting": "[6]; [16]", "value": 73.9, "unit": "%"}, {"measurement": "antitumor effect on KG-1 tumor (monotherapy)", "setting": "[7]; compound A 30 mg/kg, cytarabine 50 mg/kg", "value": "antitumor effect"}, {"measurement": "T/C (ratio of relative tumor volume of treated group to control group)", "setting": "[7]; compound A monotherapy 30 mg/kg orally, daily, 14 days, Day 16", "value": 52.0, "unit": "%"}, {"measurement": "FIC (fractional inhibitory concentration)", "setting": "[8]; bendamustine fixed at 0 nM, compound A at its IC50", "value": 1}, {"measurement": "FIC (fractional inhibitory concentration)", "setting": "[8]; bendamustine fixed at 1250 nM, compound A at its IC50", "value": 0.595}, {"measurement": "FIC (fractional inhibitory concentration)", "setting": "[8]; bendamustine fixed at 2500 nM, compound A at its IC50", "value": 0.258}, {"measurement": "FIC (fractional inhibitory concentration)", "setting": "[8]; bendamustine fixed at 5000 nM, compound A at its IC50", "value": 0.123}, {"measurement": "FIC (fractional inhibitory concentration)", "setting": "[8]; compound A fixed at 0 nM, bendamustine at its IC50", "value": 0}, {"measurement": "FIC (fractional inhibitory concentration)", "setting": "[8]; compound A fixed at 39.1 nM, bendamustine at its IC50", "value": 0.103}, {"measurement": "FIC (fractional inhibitory concentration)", "setting": "[8]; compound A fixed at 78.1 nM, bendamustine at its IC50", "value": 0.205}, {"measurement": "FIC (fractional inhibitory concentration)", "setting": "[8]; compound A fixed at 156.3 nM, bendamustine at its IC50", "value": 0.410}, {"measurement": "FIC (fractional inhibitory concentration)", "setting": "[8]; compound A fixed at 312.5 nM, bendamustine at its IC50", "value": 0.820}, {"measurement": "antitumor effect on KG-1 tumor (monotherapy)", "setting": "[9]; compound A 30 mg/kg, decitabine 1 mg/kg", "value": "antitumor effect"}, {"measurement": "T/C (ratio of relative tumor volume of treated group to control group)", "setting": "[9]; compound A monotherapy 30 mg/kg orally, daily, 21 days, Day 23", "value": 45.2, "unit": "%"}, {"measurement": "effectiveness of monotherapy (tumor growth delay)", "setting": "[10]; 30 mg/kg of compound A, 15 mg/kg of bendamustine", "value": "effective"}, {"measurement": "Median Time (time for relative tumor volume to reach 1600%)", "setting": "[10]; [12]", "value": 23.9, "unit": "days"}, {"measurement": "Tumor growth delay", "setting": "[10]; compound A 30 mg/kg orally once a day for 14 days, relative tumor volume 1600%", "value": 8.4, "unit": "days"}]}]}
